Where “and” joins values, the source holds several entries; their conditions need not be identical. Equal entries are not always repeated.
How the values were obtained:
Assay in all cases: Growth inhibition assay (SRB)
SK-OV-3 = assay type: cell-based; conditions: 3 days of treatment; for inhibition at 1 µM / inhibition at 10 µM: Homo sapiens, SK-OV-3, 72 h, read-out: Percentage of growth inhibition, SKOV−3
Source text: (§1) To illustrate the general and useful biological activity of the heteroarotinoids described in this invention, selected compounds were screened for ability to inhibit the growth of three ovarian cancerous cell lines, namely Caov, SKOV, and OVCAR cell lines, three cervical cell lines (Cervix HPV-Wt p53, Cervix HPV-Mut p53, and Cervix HPV-Mut p53), and one vulvar (Vulvar HPV-Mut p53) cell line as shown in Tables I-III. The cell lines and the technology have been previously described [See Journal of Medicinal Chemistry, 1999, Vol. 42, pages 3602-3614 in an article entitled “Synthesis, Structure-Activity Relationships, and RAR γ-Ligand Interactions of Nitrogen Heteroarotinoids” by A. Dhar, S. Liu, J. Klucik, K. D. Berlin, M. M. Madler, S. Lu, R. T. Ivey, D. Zacheis, C. W. Brown, E. C. Nelson, P. J. Birckbichler, and D. M. Benbrook], but the general technique was slightly modified. Cultures of the cancerous cells were plated in volumes of 150 μL in 96-well microtiter plates at concentrations of 2000-4000 cells/well, depending upon the cell line used. Retinoids were added the next day at 4× the concentrations in 50 μL of media resulting in 1, 2, 3, 4, 5, 7, and 10 μM final concentrations of each retinoid. Control cultures were treated with the same volume of DMSO. After 3 days of treatment, the cell density in each well was determined by fixing the cells in trichloroacetic acid followed by staining the cytoplasmic proteins with sulforhoamine B (SRB). After rinsing, the SRB was solubilized in Tris-HCl, and the optical density of each culture was determined with a MR600 microtiter plate reader. Each experiment was performed in triplicate, and the three values of each treatment were averaged. The average OD of the treated cultures was divided by that of the control cultures treated with solvent alone. To determine the percent growth inhibition, this ratio was subtracted from 1 and multiplied by 100. Tables I, II, and III contain representative examples of the inhibition of growth by the inventive heteroarotinoids of the cancerous cell lines investigated at two independent concentrations (1 and 10 μM). As standards for comparison purposes, trans-retinoic acid (t-RA), 9-cis-retinoic acid (9-c-RA), 13-cis-retinoic acid (13-c-RA), and […] (4-HPR) were added in parallel experiments along with the heteroarotinoids and with dimethyl sulfoxide (DMSO) as the solvent. For convenience, the data in Tables II and III are duplicated and ranked according to tumor type.

OVCAR-3 = assay type: cell-based, human; conditions: for Percentage of growth inhibition, OVCAR−3 / inhibition at 1 µM / inhibition at 10 µM: 3 days of treatment; for inhibition at 1 µM / inhibition at 10 µM: Homo sapiens, OVCAR-3, 72 h, read-out: Percentage of growth inhibition, OVCAR−3
Source text: as §1

CAOV-3 = assay type: cell-based; conditions: 3 days of treatment; for inhibition at 1 µM / inhibition at 10 µM: Homo sapiens, Caov-3, 72 h, read-out: Percentage of growth inhibition, CAOV−3
Source text: as §1

Compound	Percentage of growth inhibition, SKOV−3 (SK-OV-3; 1 μM, Table II)	Percentage of growth inhibition, OVCAR−3 (OVCAR-3; 1 μM, Table II)	Percentage of growth inhibition, CAOV−3 (CAOV-3; 1 μM, Table II)	Percentage of growth inhibition, CAOV−3 (CAOV-3; 10 μM, Table III)	Percentage of growth inhibition, SKOV−3 (SK-OV-3; 10 μM, Table III)	Percentage of growth inhibition, OVCAR−3 (OVCAR-3; 10 μM, Table III)	further results
13-cis-retinoic acid [13-c-RA, reference compound]	28.5%	9.8%					
CC1(C)CC(C)(C)c2cc(NC(=O)Nc3ccc(C(=O)O)cc3)ccc2S1 [heteroarotinoid 14]	3.58%	−6.70%	−4.00%	6.12%	0.43%	5.45%	
CC1(C)CC(C)(C)c2cc(NC(=S)Nc3ccc(S(N)(=O)=O)cc3)ccc2S1 [heteroarotinoid 15]	−1.86%	8.91%	19.85%	−9.56%	9.83%	40.90%	
Cc1cc2c(cc1NC(=S)Nc1ccc([N+](=O)[O-])cc1)C(C)(C)CC(C)(C)S2 [heteroarotinoid 17]	3.0%	6.6%			65.3%	64.9%	
Cc1cc2c(cc1NC(=S)Nc1ccc(C(=O)O)cc1)C(C)(C)CC(C)(C)S2 [heteroarotinoid 18]	10.5%	10.1%			8.5%	18.7%	
Cc1cc([N+](=O)[O-])ccc1NC(=S)Nc1cc2c(cc1C)SC(C)(C)CC2(C)C [heteroarotinoid 19]	16.3%	9.6%			33.3%	33.2%	
Cc1cc2c(cc1NC(=S)Nc1ccc(S(N)(=O)=O)cc1)C(C)(C)CC(C)(C)S2 [heteroarotinoid 20]	14.7%	10.3%			12.1%	47.1%	
CC1(C)CC(C)(C)c2cccc(NC(=S)Nc3ccc([N+](=O)[O-])cc3)c2S1 [heteroarotinoid 22, [(4-Nitrophenyl)amino][(2,2,4,4-tetramethyl{3H-benzo[3,4-e]thiany-8-yl})amino]methane-1-thione]	1.09%	4.07%	−9.97%			40.13% and 40.14%	
CCOC(=O)c1ccc(NC(=S)Nc2cccc3c2SC(C)(C)CC3(C)C)cc1 [heteroarotinoid 23]	−0.79%	−0.19%	11.36%	17.77%	7.67%	2.75%	
CCOC(=O)c1ccc(NC(=O)Nc2cc3c(cc2OC)C(C)(C)COC3(C)C)cc1 [heteroarotinoid 33]	1.65%	8.81%	3.79%	40.04%	15.60%	52.61%	
CCCCOC(=O)c1ccc(NC(=O)Nc2cc3c(cc2OC)C(C)(C)COC3(C)C)cc1 [heteroarotinoid 34]	22.2%	2.2%			6.0%	30.5%	
COc1cc2c(cc1NC(=S)Nc1ccc([N+](=O)[O-])cc1C)C(C)(C)OCC2(C)C [heteroarotinoid 35]	10.3%	5.6%			−14.3%	6.1%	
CCOC(=O)c1ccc(NC(=O)Nc2c(OC)ccc3c2C(C)(C)COC3(C)C)cc1 [heteroarotinoid 38, Ethyl 4-{[N-(6-Methoxy-1,1,4,4-tetramethylisochroman-5-yl)carbamoyl]amino}benzoate]							inhibition at 1 µM (CAOV-3; 1 μM, Table II): 8.79%; inhibition at 10 µM (CAOV-3; 10 μM, Table III): -16.1%; inhibition at 1 µM (SK-OV-3; 1 μM, Table II): -2.39%; inhibition at 10 µM (SK-OV-3; 10 μM, Table III): -7.7%; inhibition at 1 µM (OVCAR-3; 1 μM, Table II): 9.48%; inhibition at 10 µM (OVCAR-3; 10 μM, Table III): 8.96%
CCCCOC(=O)c1ccc(NC(=O)Nc2c(OC)ccc3c2C(C)(C)COC3(C)C)cc1 [heteroarotinoid 40]	1.82%	15.47%	15.24%	37.84%	9.27%	33.74%	inhibition of growth of the OVCAR cell line exceeding that of 4-HPR (OVCAR-3; 1 μM, Table II): more than 1200%; inhibition of growth of the OVCAR cell line exceeding that of 9-c-RA (OVCAR-3; 1 μM, Table II): about 120%; inhibition of growth of the OVCAR cell line exceeding that of 13-c-RA (OVCAR-3; 1 μM, Table II): about 40%; inhibition of growth of the OVCAR cell line exceeding that of t-RA (OVCAR-3; 1 μM, Table II): about 120%
COc1ccc2c(c1NC(=S)Nc1ccc([N+](=O)[O-])cc1)C(C)(C)COC2(C)C [heteroarotinoid 41]	−2.72%	7.18%	7.58%	61.94%	45.45%	81.71%	
CCOC(=O)c1ccc(NC(=O)Nc2cc(C(C)=O)cc3c2OCCC3(C)C)cc1 [heteroarotinoid 45, Ethyl 4-{[N-(6-Acetyl-4,4-dimethylchroman-8-yl)carbamoyl]amino}benzoate]							inhibition at 1 µM (CAOV-3; 1 μM, Table II): 7.18%; inhibition at 10 µM (CAOV-3; 10 μM, Table III): 42.8%; inhibition at 1 µM (SK-OV-3; 1 μM, Table II): -4.18%; inhibition at 10 µM (SK-OV-3; 10 μM, Table III): 20%; inhibition at 1 µM (OVCAR-3; 1 μM, Table II): 9.2%; inhibition at 10 µM (OVCAR-3; 10 μM, Table III): 47.2%
CC(=O)c1cc(NC(=S)Nc2ccc([N+](=O)[O-])cc2)c2c(c1)C(C)(C)CCO2 [heteroarotinoid 46]	−1.53%	8.57%	3.85%	−5.35%	0.25%	43.15%	
